Patent publication US20230279018A1, “AP[…] INHIBITION” (priority 2020, published 2023)

Tests used:
[1] = target: T1, Pv (Plasmodium vivax) cFRS (Plasmodium vivax, UniProt A5K9S0); assay: malachite green-based aminoacylation assay, PvcFRS; assay type: biochemical; details: aminoacylation activity
T1 construct: Full-length PvcFRS was also purified according to the same protocol; His6 (encoded by vector pETM11); made in house; host or cells: E. coli strain B834
Excerpt: EC50 assays were run as described in Int'l Pub Nos. WO 2015070204, WO 2018175385, and Kato, N, et al. Nature 538 (2016): 344-349, which are hereby incorporated by reference in its entirety. The inhibition of the aminoacylation activity of Pf (Plasmodium falciparum), Pv (Plasmodium vivax), Hs (Human) and Pf-Mut (L550V) cFRS enzymes by Compound 1 are illustrated in FIG. 1.
The enzymatic activity of purified heterodimeric PfcFRS using malachite green-based aminoacylation assays with substrates L-Phe and ATP was also measured as described in Cestari, I. et al., J Biomol. Screen. 18 (2013): 490-497 and Kato, N, et al. Nature 538 (2016): 344-349, which are hereby incorporated by reference in its entirety. […] Enzymatic reactions (50 μl total volume) were performed in clear, flat-bottomed, 96-well plates (Costar 96-well standard microplates). The reaction mixture was incubated for 2 h at 37° C. The reaction was stopped by adding 12.5 μl of malachite green solution to the reaction mixture and levels of inorganic phosphate (Pi) were detected after incubation of 5 min at room temperature. Absorbance was the measured at 620 nm using a Spectramax M2 (Molecular Devices). Reactions without FRS enzyme were performed as background controls, values of which were subtracted from the reactions with enzyme. […]

PfcFRS = target: T2, PfcFRS (Plasmodium falciparum, UniProt Q8I246); assay: Surface Plasmon Resonance binding, PfcFRS; details: SPR, 25° C., PBS pH 7.4, 5% DMSO; read-out: cFRS Kd, Pf
T2 sequence (Q8I246 1-575): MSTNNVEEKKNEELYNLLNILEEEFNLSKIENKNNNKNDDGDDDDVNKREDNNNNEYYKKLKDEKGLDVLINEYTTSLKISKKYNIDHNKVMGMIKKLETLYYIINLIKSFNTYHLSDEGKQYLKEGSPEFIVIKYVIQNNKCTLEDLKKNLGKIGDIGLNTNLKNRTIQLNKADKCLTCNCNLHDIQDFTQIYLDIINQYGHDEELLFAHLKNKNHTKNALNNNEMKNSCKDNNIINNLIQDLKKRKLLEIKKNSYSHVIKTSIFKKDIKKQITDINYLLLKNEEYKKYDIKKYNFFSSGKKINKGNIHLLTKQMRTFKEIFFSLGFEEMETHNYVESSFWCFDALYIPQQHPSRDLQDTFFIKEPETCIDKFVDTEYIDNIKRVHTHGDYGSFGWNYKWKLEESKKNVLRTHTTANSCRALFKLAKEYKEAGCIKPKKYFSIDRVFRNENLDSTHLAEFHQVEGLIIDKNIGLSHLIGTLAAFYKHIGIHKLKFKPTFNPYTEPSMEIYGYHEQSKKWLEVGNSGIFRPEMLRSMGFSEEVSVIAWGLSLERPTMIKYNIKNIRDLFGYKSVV
T2 sequence (Q8IIW2 1-623 partner): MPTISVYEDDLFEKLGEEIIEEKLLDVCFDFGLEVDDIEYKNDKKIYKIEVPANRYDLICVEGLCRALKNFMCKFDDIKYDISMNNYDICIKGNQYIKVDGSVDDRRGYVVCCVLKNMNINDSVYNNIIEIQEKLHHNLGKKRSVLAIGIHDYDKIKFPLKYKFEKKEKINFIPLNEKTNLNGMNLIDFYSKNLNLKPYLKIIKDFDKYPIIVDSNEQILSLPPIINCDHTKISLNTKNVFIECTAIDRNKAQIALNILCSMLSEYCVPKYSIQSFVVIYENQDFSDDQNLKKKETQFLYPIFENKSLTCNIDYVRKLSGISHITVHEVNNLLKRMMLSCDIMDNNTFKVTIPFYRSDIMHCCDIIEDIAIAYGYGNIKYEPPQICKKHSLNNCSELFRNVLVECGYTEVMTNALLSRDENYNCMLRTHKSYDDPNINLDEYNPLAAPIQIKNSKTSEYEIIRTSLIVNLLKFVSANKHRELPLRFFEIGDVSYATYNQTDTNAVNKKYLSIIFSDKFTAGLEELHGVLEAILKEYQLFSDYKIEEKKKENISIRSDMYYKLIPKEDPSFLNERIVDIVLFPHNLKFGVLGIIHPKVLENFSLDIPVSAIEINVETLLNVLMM
Experimental: Surface Plasmon Resonance experiments to evaluate the binding of Compound 1 to proteins were carried out on a Biacore T200 instrument (GE Healthcare) at 25° C. The binding experiments were performed in buffer 10 mM phosphate buffered saline (PBS), pH 7.4, containing 5% dimethyl sulfoxide (DMSO). The flow system was primed with the running buffer before the initiation of the experiment. Both PfcFRS and HscFRS were immobilized to Sensor Chip CM5 by standard amine coupling chemistry using N-hydroxysuccinimide (NHS) and ethyl(dimethylaminopropyl) carbodiimide (EDC), to an immobilization level of approximately 1500 RU. The binding experiments were carried out in a single cycle kinetics mode. Compound 1 was serially diluted in running buffer, and injected at a flow rate of 60 μl min^−1 across both surface for 60 s and dissociation were set up for 120 s. The analysis was done using Biaevaluation (GE Healthcare) and GraphPad Prism 7 software (GraphPad Software Inc, USA). […] The equilibrium dissociation constants (Kd) were determined by plotting the measured response (Req) as a function of the analyte concentration. […] Measured sensograms illustrating the binding of various concentrations of Compound 1 to the protein are shown in FIG. 3B (PfcFRS) and 3C (HscFRS) including both the measured data and the 1:1 binding model fit.

T1 sequence (A5K9S0 whole entry): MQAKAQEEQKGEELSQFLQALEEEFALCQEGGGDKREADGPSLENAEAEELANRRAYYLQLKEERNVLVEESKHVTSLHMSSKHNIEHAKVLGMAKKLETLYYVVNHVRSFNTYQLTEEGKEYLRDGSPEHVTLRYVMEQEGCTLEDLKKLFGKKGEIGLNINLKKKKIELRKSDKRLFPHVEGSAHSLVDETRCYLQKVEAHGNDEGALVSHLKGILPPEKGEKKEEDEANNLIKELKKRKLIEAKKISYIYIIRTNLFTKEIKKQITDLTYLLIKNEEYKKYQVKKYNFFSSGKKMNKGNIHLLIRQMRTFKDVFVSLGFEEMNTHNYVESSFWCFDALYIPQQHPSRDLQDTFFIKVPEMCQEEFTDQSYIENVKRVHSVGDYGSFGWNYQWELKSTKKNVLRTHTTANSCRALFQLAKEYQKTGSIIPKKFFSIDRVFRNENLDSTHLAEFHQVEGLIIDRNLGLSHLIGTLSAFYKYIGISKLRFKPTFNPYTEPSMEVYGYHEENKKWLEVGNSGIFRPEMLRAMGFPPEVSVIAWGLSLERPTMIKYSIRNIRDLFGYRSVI
T1 sequence (A5K464 whole entry, further chain): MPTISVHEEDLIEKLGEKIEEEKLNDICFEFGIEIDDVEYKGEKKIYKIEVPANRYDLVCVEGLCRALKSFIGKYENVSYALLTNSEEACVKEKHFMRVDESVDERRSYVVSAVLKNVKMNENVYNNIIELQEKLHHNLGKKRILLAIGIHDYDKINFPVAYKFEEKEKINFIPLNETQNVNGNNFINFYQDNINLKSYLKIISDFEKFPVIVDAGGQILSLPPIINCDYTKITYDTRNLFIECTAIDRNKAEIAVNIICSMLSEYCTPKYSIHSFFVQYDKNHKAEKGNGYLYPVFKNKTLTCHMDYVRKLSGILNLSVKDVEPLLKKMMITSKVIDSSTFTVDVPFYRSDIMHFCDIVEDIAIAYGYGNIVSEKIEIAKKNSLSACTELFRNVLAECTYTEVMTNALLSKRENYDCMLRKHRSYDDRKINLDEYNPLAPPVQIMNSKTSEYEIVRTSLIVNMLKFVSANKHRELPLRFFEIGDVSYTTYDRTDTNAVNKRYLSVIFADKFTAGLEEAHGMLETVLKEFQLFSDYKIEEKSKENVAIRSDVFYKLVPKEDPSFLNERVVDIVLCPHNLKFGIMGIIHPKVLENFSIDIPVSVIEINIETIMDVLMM

Compound: COC[C@@H]1[C@H](c2ccc(C#Cc3ccccc3)cc2)[C@@H]2CN(C(=O)Nc3ccc(OC4CC4)cc3)C[C@@H](O)[C@@H](O)CN12 [Compound 1, (3S,4R,8R,9R,10S)—N-(4-cyclopropoxyphenyl)-3,4-dihydroxy-10-(methoxymethyl)-9-(4-(phenylethynyl)phenyl)-1,6-diazabicyclo[6.2.0]decane-6-carboxamide]
- IC50 [1]: 25 nM
- Kd (PfcFRS): 4 nM
